Source: patent US20180280377A1, “Imidazo[4,5-c]quinolin-2-one Compounds and Their Use in Treating Cancer” (ASTRAZENECA AB, priority 2015, published 2018)

Tests used:
ATM = target: T1, ATM (Homo sapiens, UniProt Q13315); assay: ATM cellular potency assay (pATM Ser1981 in irradiated HT29 cells); format: cell-based; conditions: 1 h compound, X-ray irradiation, pATM (Ser1981); Table 2; read-out: Assay a) ATM Cell IC50
T1 construct: endogenous in cells; host or cells: HT29 cells (ECACC #85061109)

mTOR = target: T2, mTOR (Homo sapiens, UniProt P42345); assay: mTOR cellular potency assay (phospho-AKT Ser473 in MDA-MB-468 cells); format: cell-based; conditions: MDA-MB-468 cells, 2 h, phospho-AKT Ser473; Table 2; read-out: Assay d) mTOR Cell IC50
T2 construct: phosphorylation of the Akt protein at Ser473 (AKT lies downstream of PI3Kα in the signal transduction pathway) in the MDA-MB-468 cells; endogenous in cells; host or cells: MDA-MB-468 cells (ATCC HTB 132)
From the text: The following assays were used to measure the effects of the compounds of the present invention: a) ATM cellular potency assay; b) PI3K cellular potency assay; c) mTOR cellular potency assay; d) ATR cellular potency assay. During the description of the assays, generally: • i. The following abbreviations have been used: 4NQO=4-Nitroquinoline N-oxide; Ab=Antibody; BSA=Bovine Serum Albumin; CO2=Carbon Dioxide; DMEM=Dulbecco's Modified Eagle Medium; DMSO=Dimethyl Sulphoxide; EDTA=Ethylenediaminetetraacetic Acid; EGTA=Ethylene Glycol Tetraacetic Acid; ELISA=Enzyme-linked Immunosorbent Assay; EMEM=Eagle's Minimal Essential Medium; FBS=Foetal Bovine Serum; h=H(s); HRP=Horseradish Peroxidase; i.p.=intraperitoneal; PBS=Phosphate buffered saline; PBST=Phosphate buffered saline/Tween; TRIS=Tris(Hydroxymethyl)aminomethane; MTS reagent: [3-(4,5-dimethylthiazol-2-yl)-5-(3-carboxymethoxyphenyl)-2-(4-sulfophenyl)-2H-tetrazolium, inner salt, and an electron coupling reagent (phenazine methosulfate) PMS; s.c. sub-cutaneously. • ii. IC50 values were calculated using a smart fitting model in Genedata.
This assay was used to measure mTOR inhibition in cells. The aim of the phospho-AKT cell based mechanism of action assay using the Acumen Explorer is to identify inhibitors of either PI3Kα or mTOR-Rictor (Rapamycin insensitive companion of mTOR). This is measured by any decrease in the phosphorylation of the Akt protein at Ser473 (AKT lies downstream of PI3Kα in the signal transduction pathway) in the MDA-MB-468 cells following treatment with compound.
MDA-MB-468 cells (human breast adenocarcinoma #ATCC HTB 132) were seeded at 1500 cells/well in 40 μl of DMEM containing 10% FBS and 1% glutamine into Greiner 384 well black flat-bottomed plates. Cell plates were incubated for 18 h in a 37° C. incubator before dosing with compounds of Formula (I) in 100% DMSO using acoustic dispensing. Compounds were dosed in a 12 point concentration range into a randomised plate map. Control wells were generated either by dosing of 100% DMSO (max signal) or addition of a reference compound (a PI3K-62 inhibitor) that completely eliminated the pAKT signal (min control). Plates were incubated at 37° C. for 2 h; cells were then fixed by the addition of […] of a 3.7% formaldehyde solution. After 30 minutes the plates were washed with PBS using a Tecan PW384 plate washer. Wells were blocked and cells permeabilised with the addition of 40 μl of PBS containing 0.5% Tween20 and 1% Marvel™ (dried milk powder) and incubated for 60 minutes at r.t. The plates were washed with PBS containing 0.5% (v/v) Tween20 and 20 μl rabbit anti-phospho AKT Ser473 (Cell Signalling Technologies, #3787) in same PBS-Tween+1% MarvelTM was added and incubated overnight at 4° C.
Plates were washed 3 times with PBS+0.05% Tween 20 using a Tecan PW384. 20 μl of secondary antibody Alexa Fluor 488 anti-Rabbit (Molecular Probes, # A11008) diluted in PBS+0.05% Tween20 containing 1% Marvel™ was added to each well and incubated for 1 h at r.t. Plates were washed three times as before then 20 μl PBS added to each well and plates sealed with a black plate sealer.
The plates were read on an Acumen plate reader as soon as possible, measuring green fluorescence after excitation with 488 nm laser. Using this system IC50 values were generated and quality of plates was determined by control wells. Reference compounds were run each time to monitor assay performance.

T1 sequence (Q13315 whole entry): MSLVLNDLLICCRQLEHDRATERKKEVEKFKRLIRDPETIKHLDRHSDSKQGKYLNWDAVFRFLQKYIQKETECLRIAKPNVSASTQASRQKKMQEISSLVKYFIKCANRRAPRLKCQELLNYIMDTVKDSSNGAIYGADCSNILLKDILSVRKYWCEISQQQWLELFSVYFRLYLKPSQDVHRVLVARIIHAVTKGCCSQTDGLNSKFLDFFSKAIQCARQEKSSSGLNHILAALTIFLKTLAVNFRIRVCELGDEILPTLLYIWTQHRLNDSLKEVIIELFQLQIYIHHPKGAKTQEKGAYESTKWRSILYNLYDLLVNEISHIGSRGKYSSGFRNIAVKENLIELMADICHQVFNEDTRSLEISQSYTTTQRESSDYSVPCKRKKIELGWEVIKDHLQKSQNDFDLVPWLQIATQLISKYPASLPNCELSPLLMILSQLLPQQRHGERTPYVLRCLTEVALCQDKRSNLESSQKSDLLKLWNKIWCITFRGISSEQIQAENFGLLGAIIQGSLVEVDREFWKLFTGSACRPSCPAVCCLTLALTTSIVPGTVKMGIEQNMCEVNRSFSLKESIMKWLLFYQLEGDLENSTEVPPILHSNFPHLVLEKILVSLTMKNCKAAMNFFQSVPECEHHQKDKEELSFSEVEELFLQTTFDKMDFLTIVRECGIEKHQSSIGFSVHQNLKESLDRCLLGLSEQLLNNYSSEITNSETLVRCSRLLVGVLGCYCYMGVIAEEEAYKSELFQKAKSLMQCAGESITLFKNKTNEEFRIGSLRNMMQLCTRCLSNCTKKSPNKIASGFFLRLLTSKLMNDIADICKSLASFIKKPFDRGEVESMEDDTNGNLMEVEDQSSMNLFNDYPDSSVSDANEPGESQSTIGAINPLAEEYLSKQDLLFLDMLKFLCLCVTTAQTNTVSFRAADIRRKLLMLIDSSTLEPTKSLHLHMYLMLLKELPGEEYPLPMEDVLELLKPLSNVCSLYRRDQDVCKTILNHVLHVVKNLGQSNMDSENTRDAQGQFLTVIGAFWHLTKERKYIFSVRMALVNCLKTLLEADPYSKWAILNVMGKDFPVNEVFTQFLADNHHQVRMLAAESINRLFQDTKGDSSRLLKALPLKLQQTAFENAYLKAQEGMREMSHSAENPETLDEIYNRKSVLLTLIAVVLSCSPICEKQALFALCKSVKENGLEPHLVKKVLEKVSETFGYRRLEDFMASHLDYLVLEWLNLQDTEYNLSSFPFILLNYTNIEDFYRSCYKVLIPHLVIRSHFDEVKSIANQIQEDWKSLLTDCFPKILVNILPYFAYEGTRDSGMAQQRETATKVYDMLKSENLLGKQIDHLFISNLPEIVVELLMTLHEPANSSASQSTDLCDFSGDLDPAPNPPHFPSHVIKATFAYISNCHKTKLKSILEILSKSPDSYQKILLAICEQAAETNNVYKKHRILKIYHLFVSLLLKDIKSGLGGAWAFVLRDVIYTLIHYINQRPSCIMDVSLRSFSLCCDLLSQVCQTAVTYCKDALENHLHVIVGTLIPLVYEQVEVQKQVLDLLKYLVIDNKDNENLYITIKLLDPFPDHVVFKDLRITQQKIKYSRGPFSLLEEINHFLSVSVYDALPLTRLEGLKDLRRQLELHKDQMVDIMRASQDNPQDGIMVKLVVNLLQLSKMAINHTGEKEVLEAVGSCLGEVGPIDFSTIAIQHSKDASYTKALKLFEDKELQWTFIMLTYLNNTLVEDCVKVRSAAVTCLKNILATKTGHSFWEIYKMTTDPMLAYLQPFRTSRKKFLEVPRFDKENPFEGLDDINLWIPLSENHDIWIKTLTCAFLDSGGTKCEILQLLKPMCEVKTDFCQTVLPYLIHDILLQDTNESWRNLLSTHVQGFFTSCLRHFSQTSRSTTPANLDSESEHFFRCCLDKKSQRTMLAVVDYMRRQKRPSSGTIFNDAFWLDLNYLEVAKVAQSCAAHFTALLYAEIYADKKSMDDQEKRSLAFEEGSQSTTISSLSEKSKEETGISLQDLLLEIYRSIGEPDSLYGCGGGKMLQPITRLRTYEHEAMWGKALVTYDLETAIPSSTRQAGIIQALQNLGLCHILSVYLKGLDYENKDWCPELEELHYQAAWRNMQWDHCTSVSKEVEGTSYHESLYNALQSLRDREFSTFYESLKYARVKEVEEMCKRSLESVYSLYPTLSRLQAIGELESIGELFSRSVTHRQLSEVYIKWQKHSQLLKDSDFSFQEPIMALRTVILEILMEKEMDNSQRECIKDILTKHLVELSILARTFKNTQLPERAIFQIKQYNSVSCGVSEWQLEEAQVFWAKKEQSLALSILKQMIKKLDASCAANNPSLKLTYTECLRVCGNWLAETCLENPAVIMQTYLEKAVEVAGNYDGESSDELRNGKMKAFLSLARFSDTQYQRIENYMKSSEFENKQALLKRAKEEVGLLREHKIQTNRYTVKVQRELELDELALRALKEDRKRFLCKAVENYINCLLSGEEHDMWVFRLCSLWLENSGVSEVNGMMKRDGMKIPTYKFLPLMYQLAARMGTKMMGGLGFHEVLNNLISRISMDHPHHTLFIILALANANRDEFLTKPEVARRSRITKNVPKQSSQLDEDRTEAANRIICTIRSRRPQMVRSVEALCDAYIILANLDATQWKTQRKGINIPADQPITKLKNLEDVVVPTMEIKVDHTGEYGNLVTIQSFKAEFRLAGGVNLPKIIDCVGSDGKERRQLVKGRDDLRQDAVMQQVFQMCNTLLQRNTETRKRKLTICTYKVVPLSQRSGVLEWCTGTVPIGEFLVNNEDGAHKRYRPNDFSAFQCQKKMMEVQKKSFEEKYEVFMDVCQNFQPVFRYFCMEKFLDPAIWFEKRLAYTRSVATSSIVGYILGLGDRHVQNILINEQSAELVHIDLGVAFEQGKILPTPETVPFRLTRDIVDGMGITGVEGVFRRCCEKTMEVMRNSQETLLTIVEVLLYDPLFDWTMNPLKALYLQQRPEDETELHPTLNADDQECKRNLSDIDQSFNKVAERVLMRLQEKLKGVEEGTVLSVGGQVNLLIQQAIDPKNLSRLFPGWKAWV

SMILES | IC50 (ATM) | IC50 (mTOR)
CN(C)[C@@H]1CCN(c2ccc(-c3ccc4ncc5c(c4c3)n([C@@H]3CCCOC3)c(=O)n5C)cn2)C1 [Example 7] | 0.626 nM | 616 nM
CN(C)[C@H]1CCN(c2ccc(-c3cc4c(cc3F)ncc3c4n([C@H]4CCCOC4)c(=O)n3C)cn2)C1 [Example 20] | 36.5 nM | > 30000 nM
CO[C@H]1C[C@@H](n2c(=O)n(C)c3cnc4cc(F)c(-c5ccc(N6CCC(N(C)C)CC6)nc5)cc4c32)C1 [Example 42, 8-[6-[4-(dimethylamino)-1-piperidyl]-3-pyridyl]-7-fluoro-1-(cis-3-methoxycyclobutyl)-3-methyl-imidazo[4,5-c]quinolin-2-one] | 1.54 nM | > 15300 nM
CNC1CCN(c2ccc(-c3cc4c(cc3F)ncc3c4n([C@H]4C[C@@H](OC)C4)c(=O)n3C)cn2)CC1 [Example 57, 7-Fluoro-1-(cis-3-methoxycyclobutyl)-3-methyl-8-[6-[4-(methylamino)-1-piperidyl]-3-pyridyl]imidazo[4,5-c]quinolin-2-one] | 1.16 nM | 7720 nM

More lines, now with the values ahead:

IC50 (ATM) | IC50 (mTOR) | SMILES
0.307 nM | 1500 nM | CO[C@H]1CC[C@H](n2c(=O)n(C)c3cnc4ccc(-c5ccc(N6CCC(N(C)C)CC6)nc5)cc4c32)C1 (single isomer, unassigned) [Example 32, 8-[6-[4-(dimethylamino)-1-piperidyl]-3-pyridyl]-1-[trans-3-methoxycyclopentyl]-3-methyl-imidazo[4,5-c]quinolin-2-one]
33.8 nM | 12800 nM | CO[C@H]1C[C@@H](n2c(=O)n(C)c3cnc4cc(F)c(-c5ccc(N6CC(N(C)C)C6)nc5)cc4c32)C1 [Example 31, 8-[6-[3-(dimethylamino)azetidin-1-yl]-3-pyridyl]-7-fluoro-1-(cis-3-methoxycyclobutyl)-3-methyl-imidazo[4,5-c]quinolin-2-one]
0.357 nM | 3900 nM | CO[C@H]1C[C@@H](n2c(=O)n(C)c3cnc4ccc(-c5ccc(N6CCC(N(C)C)CC6)nc5)cc4c32)C1 [Example 36, 8-[6-[4-(dimethylamino)-1-piperidyl]-3-pyridyl]-1-(cis-3-methoxycyclobutyl)-3-methyl-imidazo[4,5-c]quinolin-2-one]
0.502 nM | 989 nM | CNC1CCN(c2ccc(-c3ccc4ncc5c(c4c3)n([C@H]3C[C@@H](OC)C3)c(=O)n5C)cn2)CC1 [Example 60, 1-(cis-3-methoxycyclobutyl)-3-methyl-8-[6-[4-(methylamino)-1-piperidyl]-3-pyridyl]imidazo[4,5-c]quinolin-2-one]
